Source: patent US20260374754A1, “N-((ISOQUINOLIN-6-YL)METHYL)-1H-PYRAZOLE-4-CARBOXAMIDE DERIVATIVES AS PLASMA KALLIKREIN INHIBITORS FOR THE TREATMENT OF HEREDITARY ANGIODEMA” (Takeda Pharmaceutical Company Limited, priority 2022, published 2026)

Tests used:
plasma kallikrein = molecular target: T1, plasma kallikrein (Homo sapiens, UniProt P03952); test: Neat Human Plasma Assay (Fluorogenic Peptide), contact pathway-activated (FXIIa) plasma; type: biochemical; conditions: human citrated plasma 78% final; 10 nM human FXIIa; PFR-AMC substrate; 5 minutes; room temperature
T1 construct: PFR-AMC substrate
T1 sequence (P03952 20-638): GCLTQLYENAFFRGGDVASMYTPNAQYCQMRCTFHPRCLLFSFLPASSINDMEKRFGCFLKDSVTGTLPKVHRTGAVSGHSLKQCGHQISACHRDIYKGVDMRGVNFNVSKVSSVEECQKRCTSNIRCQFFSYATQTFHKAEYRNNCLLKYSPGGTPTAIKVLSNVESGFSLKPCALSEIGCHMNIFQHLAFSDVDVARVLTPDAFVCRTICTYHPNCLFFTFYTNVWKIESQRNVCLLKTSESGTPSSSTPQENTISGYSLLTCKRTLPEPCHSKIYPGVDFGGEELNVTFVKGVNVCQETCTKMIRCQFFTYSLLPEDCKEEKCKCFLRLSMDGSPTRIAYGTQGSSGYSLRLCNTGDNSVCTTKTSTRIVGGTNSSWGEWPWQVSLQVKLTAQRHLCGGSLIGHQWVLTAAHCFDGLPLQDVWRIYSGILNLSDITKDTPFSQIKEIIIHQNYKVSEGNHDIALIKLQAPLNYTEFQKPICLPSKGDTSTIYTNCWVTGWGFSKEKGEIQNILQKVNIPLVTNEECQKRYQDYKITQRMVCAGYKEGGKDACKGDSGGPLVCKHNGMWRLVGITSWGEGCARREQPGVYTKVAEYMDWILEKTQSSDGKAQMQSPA
How it was run: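 Compound spiked into citrated human plasma (78% final), or plasma taken from rats dosed orally or IV. Activation by 10 nM FXIIa, then […] PFR-AMC in PKa buffer pH 7.5 at room temperature. Fluorescence rate over 5 min, with IC50/IC90 from 4-parameter fit.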

[1] = molecular target: human activated kallikrein enzyme (Homo sapiens, UniProt P03952); test: Inhibition of human activated plasma kallikrein, fluorogenic PFR-AMC substrate, 500 pM enzyme format; type: biochemical; conditions: 500 pM activated kallikrein; 300 μM PFR-AMC; 30 min preincubation; 10 min room temperature; pH 7.5; read-out: Primary Dose Response Assay: Average EC50
Chain of human activated kallikrein enzyme (P03952 391-638 limits assumed): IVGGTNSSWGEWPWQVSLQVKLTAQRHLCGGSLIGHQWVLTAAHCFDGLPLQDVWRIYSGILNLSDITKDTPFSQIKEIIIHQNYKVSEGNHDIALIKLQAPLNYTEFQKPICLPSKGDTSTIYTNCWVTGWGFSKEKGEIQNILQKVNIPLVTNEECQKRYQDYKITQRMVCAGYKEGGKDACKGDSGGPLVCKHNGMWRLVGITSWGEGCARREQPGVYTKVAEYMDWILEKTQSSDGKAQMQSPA
Chain of human activated kallikrein enzyme (P03952 20-390 partner limits assumed): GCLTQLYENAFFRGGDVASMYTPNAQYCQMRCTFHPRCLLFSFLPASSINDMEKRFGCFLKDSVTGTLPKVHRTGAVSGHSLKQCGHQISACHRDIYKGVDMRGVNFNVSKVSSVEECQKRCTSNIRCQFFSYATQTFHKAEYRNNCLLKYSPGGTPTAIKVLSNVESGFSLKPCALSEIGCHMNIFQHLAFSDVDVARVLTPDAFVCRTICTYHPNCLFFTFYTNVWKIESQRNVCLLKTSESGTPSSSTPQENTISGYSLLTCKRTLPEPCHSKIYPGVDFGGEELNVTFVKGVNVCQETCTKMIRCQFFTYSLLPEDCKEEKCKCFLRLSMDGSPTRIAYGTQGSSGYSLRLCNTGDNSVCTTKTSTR
How it was run: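 500 pM activated kallikrein preincubated 30 min at room temperature with inhibitors in pH 7.5 Tris/EDTA/NaCl buffer with PEG-400 and Triton X-100. Reaction started with 300 μM PFR-AMC, run 10 min at room temperature; AMC fluorescence read at ex 380/em 460 nm.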

Molecule | IC90 (plasma kallikrein) | EC50 [1]
Cc1cc2c(N)nccc2c(C)c1CNc1cc2c(cn1)nnn2Cc1cn2cc(C3CC3)ccc2n1 [Example 501, 6-(((1-((6-cyclopropylimidazo[1,2-a]pyridin-2-yl)methyl)-1H-[1,2,3]triazolo[4,5-c]pyridin-6-yl)amino)methyl)-5,7-dimethylisoquinolin-1-amine] | ≤ 1000 nM | < 1 nM
Cc1cc2c(N)nccc2c(C)c1CNc1cc2c(cn1)ncn2Cc1nc2ccc(C3CC3)cn2n1 [Example 503, 6-(((1-((6-cyclopropyl-[1,2,4]triazolo[1,5-a]pyridin-2-yl)methyl)-1H-imidazo[4,5-c]pyridin-6-yl)amino)methyl)-5,7-dimethylisoquinolin-1-amine] | ≤ 1000 nM | < 1 nM
Cc1cc2c(N)nccc2c(C)c1CNc1cc2c(cn1)ncn2Cc1cc2cc(C3CC3)cnc2s1 [Example 504, 6-(((1-((5-cyclopropylthieno[2,3-b]pyridin-2-yl)methyl)-1H-imidazo[4,5-c]pyridin-6-yl)amino)methyl)-5,7-dimethylisoquinolin-1-amine] | ≤ 1000 nM | < 1 nM
Cc1cc2c(N)nccc2c(C)c1CNc1cc(OCc2cc3cc(C4CC4)cc(CCC(C)(C)O)n3n2)ncn1 [Example 508, 4-(2-(((6-(((1-amino-5,7-dimethylisoquinolin-6-yl)methyl)amino)pyrimidin-4-yl)oxy)methyl)-5-cyclopropylpyrazolo[1,5-a]pyridin-7-yl)-2-methylbutan-2-ol] | > 5000 nM | 1 to 10 nM
Cc1cc2c(N)nccc2c(C)c1CNc1cc(OCc2cc3cc(C4CC4)cc(CC(C)(C)C(N)=O)n3n2)ncn1 [Example 509, 3-(2-(((6-(((1-amino-5,7-dimethylisoquinolin-6-yl)methyl)amino)pyrimidin-4-yl)oxy)methyl)-5-cyclopropylpyrazolo[1,5-a]pyridin-7-yl)-2,2-dimethylpropanamide] | 1000 to 5000 nM | < 1 nM
Cc1cc2c(N)nccc2c(C)c1CNc1cc(OCc2cc3cc(C4CC4)cc(CC(C)(C)C#N)n3n2)ncn1 [Example 510, 3-(2-(((6-(((1-amino-5,7-dimethylisoquinolin-6-yl)methyl)amino)pyrimidin-4-yl)oxy)methyl)-5-cyclopropylpyrazolo[1,5-a]pyridin-7-yl)-2,2-dimethylpropanenitrile] | 1000 to 5000 nM | 1 to 10 nM
N-((1-amino-5,7-dimethylisoquinolin-6-yl)methyl)-1-(4-((2-oxopyridin-1(2H)-y1)methyl)benzyl)-1H-1,2,3-triazole-4-carboxamide [Example 186] | ≤ 1000 nM | < 1 nM

Results, then the molecule that gave them:

IC90 (plasma kallikrein) | EC50 [1] | Molecule
≤ 1000 nM | < 1 nM | Cc1cc2c(N)nccc2c(C)c1CNc1cc(N2C[C@@H](O)C[C@@H]2c2cn3cc(C4CC4)ccc3n2)ncn1 [Example 513, (3S,5R)-1-(6-(((1-amino-5,7-dimethylisoquinolin-6-yl)methyl)amino)pyrimidin-4-yl)-5-(6-cyclopropylimidazo[1,2-a]pyridin-2-yl)pyrrolidin-3-ol]
≤ 1000 nM | < 1 nM | Cc1cc2c(N)nccc2c(C)c1CNC(=O)c1ccnc(Cc2cn3cc(C4CC4)ccc3n2)c1 [Example 514, N-((1-amino-5,7-dimethylisoquinolin-6-yl)methyl)-2-((6-cyclopropylimidazo[1,2-a]pyridin-2-yl)methyl)isonicotinamide]
1000 to 5000 nM | < 1 nM | Cc1ccc2cc(Cn3ccc4nnc(NCc5c(C)cc6c(N)nccc6c5C)cc43)ccc2n1 [Example 515, 5,7-dimethyl-6-(((5-((2-methylquinolin-6-yl)methyl)-5H-pyrrolo[3,2-c]pyridazin-3-yl)amino)methyl)isoquinolin-1-amine]
> 5000 nM | 1 to 10 nM | Cc1c(CNc2cc(OCc3ccc(Cn4cccn4)cc3)ncn2)ccc2c(N)nccc12 [Example 533, 6-(((6-((4-((1H-pyrazol-1-yl)methyl)benzyl)oxy)pyrimidin-4-yl)amino)methyl)-5-methylisoquinolin-1-amine]
≤ 1000 nM | < 1 nM | Cc1cc2c(N)nccc2c(C)c1CNc1cc2c(ccn2Cc2ccc(Cn3cccn3)cc2)nn1 [Example I-457, 6-(((5-(4-((1H-pyrazol-1-yl)methyl)benzyl)-5H-pyrrolo[3,2-c]pyridazin-3-yl)amino)methyl)-5,7-dimethylisoquinolin-1-amine]
≤ 1000 nM | < 1 nM | Cc1cc2c(N)nccc2c(C)c1CNC(=O)c1cnn(Cc2nc3ccc(C4CC4)cn3n2)c1 [Example I-482, N-((1-amino-5,7-dimethylisoquinolin-6-yl)methyl)-1-((6-cyclopropyl-[1,2,4]triazolo[1,5-a]pyridin-2-yl)methyl)-1H-pyrazole-4-carboxamide]
